Experimental data: patent publication US8772504B2, “Substituted benzoxazole, benzimidazole, oxazolopyridine and imidazopyridine derivatives as gamma secretase modulators” (Janssen Pharmaceuticals, Inc., priority 2009, dated 2014)

Key:
Aβ42 = assay: Screening for γ-secretase-modulating activity, Method 2: Aβ42 Alphalisa on SKNBE2 cell supernatant; assay type: cell-based; conditions: Method 2, Table 3c, SKNBE2 cells carrying APP 695 wild type, overnight incubation
Protocol: (§1) Screening was carried out using SKNBE2 cells carrying the APP 695—wild type, grown in Dulbecco's Modified Eagle's Medium/Nutrient mixture F-12 (DMEM/NUT-mix F-12) (HAM) provided by Invitrogen (cat no. 10371-029) containing 5% Serum/Fe supplemented with 1% non-essential amino acids, 1-glutamine 2 mM, Hepes 15 mM, penicillin 50 U/ml (units/ml) en streptomycin 50 μg/ml. Cells were grown to near confluency.
(§2) The screening was performed using a modification of the assay as described in Citron et al (1997) Nature Medicine 3: 67. Briefly, cells were plated in a 384-well plate at 10^4 cells/well in Ultraculture (Lonza, BE12-725F) supplemented with 1% glutamine (Invitrogen, 25030-024), 1% non-essential amino acid (NEAA), penicillin 50 U/ml en streptomycin 50 μg/ml in the presence of test compound at different test concentrations. The cell/compound mixture was incubated overnight at 37° C., 5% CO2. The next day the media were assayed by two sandwich immuno-assays, for Aβ42 and Aβtotal.
(§3) Aβtotal and Aβ42 concentrations were quantified in the cell supernatant using the Aphalisa technology (Perkin Elmer). Alphalisa is a sandwich assay using biotinylated antibody attached to streptavidin coated donorbeads and antibody conjugated to acceptor beads. In the presence of antigen, the beads come into close proximity. The excitation of the donor beads provokes the release of singlet oxygen molecules that trigger a cascade of energy transfer in the acceptor beads, resulting in light emission. To quantify the amount of Aβ42 in the cell supernatant, monoclonal antibody specific to the C-terminus of Aβ42 (JRF/cAβ42/26) was coupled to the receptor beads and biotinylated antibody specific to the N-terminus of Aβ (JRF/AβN/25) was used to react with the donor beads. To quantify the amount of Aβtotal in the cell supernatant, monoclonal antibody specific to the N-terminus of Aβ (JRF/AβN/25) was coupled to the receptor beads and biotinylated antibody specific to the mid region of Aβ (biotinylated 4G8) was used to react with the donor beads.
(§4) To obtain the values reported in Table 3c, the data were calculated as percentage of the maximum amount of amyloid Beta 42 measured in the absence of the test compound. The sigmoidal dose response curves were analyzed using non-linear regression analysis with percentage of the control plotted against the log concentration of the compound. A 4-parameter equation was used to determine the IC50.

Aβtotal = assay: Screening for γ-secretase-modulating activity, Method 2: Aβtotal Alphalisa on SKNBE2 cell supernatant; assay type: cell-based; conditions: Method 2, Table 3c, SKNBE2 cells carrying APP 695 wild type, overnight incubation
Protocol: as §1, §2, §3, §4

COc1cccc(-c2nc3c(Nc4ccc(-n5cnc(C)c5)c(OC)n4)cccc3o2)c1 [Compound 152]
IC50 (Aβ42): 234 nM | IC50 (Aβtotal): 8130 nM

CCOc1cccc(-c2nc3c(Nc4ccc(-n5cnc(C)c5)c(F)c4)nc(C)cc3n2C)c1 [Compound 153]
IC50 (Aβ42): 12 nM | IC50 (Aβtotal): 6460 nM

Cc1cc2c(nc(-c3ccc(F)cc3)n2C)c(Nc2ccc(-n3cc(C)nc3I)c(F)c2)n1 [Compound 154]
IC50 (Aβ42; Homo sapiens): 19 nM | IC50 (Aβtotal; Homo sapiens): 560 nM

Cc1cn(-c2ccc(Nc3nc(C)cc4c3nc(-c3ccc(F)c(Br)c3)n4C)cc2F)cn1 [Compound 155]
IC50 (Aβ42): 8 nM | IC50 (Aβtotal): > 10000 nM

COc1cc(Nc2cncc3c2nc(-c2ccc(F)cc2)n3C)ccc1-n1cnc(C)n1 [Compound 158]
IC50 (Aβ42): 166 nM | IC50 (Aβtotal): > 10000 nM

COc1nc(Nc2cccc3c2nc(-c2ccc(F)cc2)n3C)ccc1-n1cnc(C)n1 [Compound 161]
IC50 (Aβ42): 7 nM | IC50 (Aβtotal): > 10000 nM

COc1nc(Nc2cccc3c2nc(-c2ccc(C(F)(F)F)cc2)n3C)ccc1-n1cnc(C)c1 [Compound 168]
IC50 (Aβ42): 8 nM | IC50 (Aβtotal): 7760 nM

COc1nc(Nc2cccc3c2nc(-c2ccc(F)c(I)c2)n3C)ccc1-n1cnc(C)c1 [Compound 169]
IC50 (Aβ42): 5 nM | IC50 (Aβtotal): > 10000 nM

COc1nc(Nc2cccc3c2nc(-c2ccccc2OC(F)(F)F)n3C)ccc1-n1cnc(C)c1 [Compound 170]
IC50 (Aβ42): 36 nM | IC50 (Aβtotal): 9120 nM

COc1nc(Nc2cccc3c2nc(-c2cccc(F)c2)n3C)ccc1-n1cnc(C)c1 [Compound 171]
IC50 (Aβ42): 27 nM | IC50 (Aβtotal): > 10000 nM

COc1nc(Nc2cccc3c2nc(-c2ccccc2C(F)(F)F)n3C)ccc1-n1cnc(C)c1 [Compound 172]
IC50 (Aβ42): 23 nM | IC50 (Aβtotal): > 10000 nM

COc1nc(Nc2cccc3c2nc(-c2cccc(N(C)C)c2)n3C)ccc1-n1cnc(C)c1 [Compound 173]
IC50 (Aβ42): 20 nM | IC50 (Aβtotal): 7940 nM

COc1nc(Nc2cccc3c2nc(-c2ccc(F)c(F)c2)n3C)ccc1-n1cnc(C)c1 [Compound 175]
IC50 (Aβ42): 21 nM | IC50 (Aβtotal): > 10000 nM

COc1nc(Nc2cccc3c2nc(-c2cccc(F)c2F)n3C)ccc1-n1cnc(C)c1 [Compound 176]
IC50 (Aβ42): 23 nM | IC50 (Aβtotal): > 10000 nM

COc1cccc(-c2nc3c(Nc4ccc(-n5cnc(C)c5)c(OC)n4)cccc3n2C)c1 [Compound 177]
IC50 (Aβ42): 20 nM | IC50 (Aβtotal): 8910 nM

COc1ccc(-c2nc3c(Nc4ccc(-n5cnc(C)c5)c(OC)n4)cccc3n2C)cc1 [Compound 178]
IC50 (Aβ42): 23 nM | IC50 (Aβtotal): > 10000 nM

CCOc1cccc(-c2nc3c(Nc4ccc(-n5cnc(C)c5)c(OC)n4)cccc3n2C)c1 [Compound 179]
IC50 (Aβ42): 11 nM | IC50 (Aβtotal): 7940 nM

COc1ccc(F)c(-c2nc3c(Nc4ccc(-n5cnc(C)c5)c(OC)n4)cccc3n2C)c1 [Compound 180]
IC50 (Aβ42): 18 nM | IC50 (Aβtotal): > 10000 nM

COc1ccc(-c2nc3c(Nc4ccc(-n5cnc(C)c5)c(OC)n4)cccc3n2C)c(F)c1 [Compound 182]
IC50 (Aβ42): 39 nM | IC50 (Aβtotal): > 10000 nM

COc1cc(-c2nc3c(Nc4ccc(-n5cnc(C)c5)c(OC)n4)cccc3n2C)cc(C(F)(F)F)c1 [Compound 183]
IC50 (Aβ42): 10 nM | IC50 (Aβtotal): 9120 nM

COc1nc(Nc2cccc3c2nc(-c2ccc(F)cc2C)n3C)ccc1-n1cnc(C)c1 [Compound 185]
IC50 (Aβ42): 25 nM | IC50 (Aβtotal): > 10000 nM

COc1cc(F)cc(-c2nc3c(Nc4ccc(-n5cnc(C)c5)c(OC)n4)cccc3n2C)c1 [Compound 188]
IC50 (Aβ42): 14 nM | IC50 (Aβtotal): 8320 nM

COc1nc(Nc2cccc3c2nc(-c2ccc(F)cc2F)n3C)ccc1-n1cnc(C)c1 [Compound 190]
IC50 (Aβ42): 26 nM | IC50 (Aβtotal): > 10000 nM

COc1nc(Nc2cccc3c2nc(-c2ccc(OC(F)(F)F)cc2)n3C)ccc1-n1cnc(C)c1 [Compound 191]
IC50 (Aβ42): 18 nM | IC50 (Aβtotal): > 10000 nM

COc1nc(Nc2cccc3c2nc(-c2ccc(F)c(C(F)(F)F)c2)n3C)ccc1-n1cnc(C)c1 [Compound 192]
IC50 (Aβ42): 13 nM | IC50 (Aβtotal): 8910 nM

COc1nc(Nc2cccc3c2nc(-c2ccccc2F)n3C)ccc1-n1cnc(C)c1 [Compound 193]
IC50 (Aβ42): 39 nM | IC50 (Aβtotal): 7080 nM
